32 molecules from US20040023972A1, “Use of substituted imidazo[1,2-a]-pyridin-, -pyrimidin-and-pyrazin-3-yl-amine derivatives in the preparation of medicaments for inhibiting NOS” (Gruenenthal GmbH, priority 2000, published 2004) can be followed below.

For orientation: inhibition means the drop in the measured response relative to a control, in per cent.

One assay addresses T1, NO synthase (Rattus norvegicus, UniProt P29476).
T1 construct: the supernatant was then removed by decantation and frozen in portions at −80° C; from tissue; host or cells: rat cerebellum, 20,000 g supernatant of homogenate
Put plainly: HTS-NOS assay (NOS assay): conversion of radioactive arginine, cation-exchanger filter plate. It is filed as biochemical. The following applies: 10 μM. The protocol: This assay enables the percentage inhibition of NO synthase by an active ingredient to be determined by measuring the NOS activity under the action of the active ingredient. NO synthase is mixed together with radioactively labelled arginine and the active ingredient under suitable conditions. After terminating the NO-forming reaction at a given time, the amount of unconverted arginine is determined directly or indirectly. A comparison of that amount with the amount of arginine that remains in a mixture of NOS and arginine without the addition of active ingredient and under otherwise identical conditions gives the % inhibition of NO synthase by the tested active ingredient. This assay can be carried out as follows:
(a) incubation of NO synthase with labelled arginine as substrate in a reaction vessel,
(b) separation of the labelled arginine from the labelled citrulline optionally formed as a product of the enzymatic reaction, at a time at which the citrulline concentration is increasing,
(c) measurement of the amount of arginine remaining in each case.
Separation is carried out over a filter plate membrane.
This NOS assay is suitable especially for “high throughput screening” (HTS) on microtitre plates (MTP).
In this HTS-NOS assay, radioactive arginine is used as substrate. The assay volume can be chosen in the range from 25 μl to 250 μl, according to the type of microtitre plate (MTP). Depending on the source of the enzyme used, co-factors and co-enzymes are added. Incubation of the batches on this microtitre plate (assay MTP) according to step (a) is carried out at room temperature and is for 5 to 60 minutes according to the enzyme activity used (units). At the end of the incubation (step (a)), the plate is placed into a cell harvester which is equipped with a MTP having a cation-exchanger membrane as the filter base (filter MTP). All batches of the assay MTP are transferred to the filter MTP and filtered off with suction over a cation-exchanger filter plate, a paper filter charged with phosphate groups. The filter MTP is then washed with buffer or water. By means of this procedure, the arginine substrate that remains is bound to the cation exchanger, while the enzymatically formed radioactive citrulline is washed out quantitatively. After drying the filter MTP and adding scintillation liquid, the bound arginine can be counted using a scintillation counter. An uninhibited NOS reaction is reflected in low radioactivity. An inhibited enzyme reaction means that the radioactive arginine has not been converted. This means that a high level of radioactivity is found on the filter.
Rat cerebella were used as the starting tissue. The animals were anaesthetized and sacrificed, the brain tissue, the cerebellum, was removed by dissection, 1 ml of enzyme preparation buffer was added per rat cerebellum (4° C.), and disintegration was carried out using a Polytron homogeniser for 1 minute at 6000 rpm, followed by centrifugation for 15 minutes at 4° C. and 20,000 g; the supernatant was then removed by decantation and frozen in portions at −80° C. (the precipitate was discarded).
96-well MTP having a well capacity of <250 μl were used.
Pipetting sequence: see Table 1.
When the pipetting operation was complete, a cover was placed on the MTP (assay MTP), and incubation was at 25° C. (room temperature (RT)) for from 5 to 60 minutes, according to the amount and activity of the enzyme used.
The contents of the assay MTP were then transferred with the aid of a 96-well cell harvester to a 96-well cation exchanger MTP (filter MTP) and filtered off with suction. This was followed by washing once with […] of H2O (from a bath).
The plate was then dried for 1 hour at 60° C. in a drying cabinet. The underside of the filter MTP was then accurately sealed from beneath with a “back seal”. 35 μl of scintillation fluid per well were then added by means of a pipette. The upper side of the plate was also sealed with a “top seal”. […]
For `C#[N+]CCCCCCNc1c(-c2ccc[nH]2)nc2cc(C)cc(C)n12` [Example 4, {6-[5,7-Dimethyl-2-(1H-pyrrol-2-yl)-imidazo[1,2-a]pyridin-3-ylamino]-hexyl}-methylidyne-ammonium], the “HTS-NOS assay: % inhibition (10 μM)” value is given as 54%.

Take `Cc1cc(C)n2c(NC(C)(C)CC(C)(C)C)c(C)nc2c1` [Example 9, (1,1,3,3-Tetramethyl-butyl)-(2,5,7-trimethyl-imidazol[1,2-a]pyridin-3-yl)-amine]: the “HTS-NOS assay: % inhibition (10 μM)” value is 59%.

Turning to `Cc1ccn2c(NC3CCCCC3)c(-c3ccccc3C)nc2c1` [Example 10, Cyclohexyl-(7-methyl-2-o-tolyl-imidazol[1,2-a]pyridin-3-yl)-amine], the “HTS-NOS assay: % inhibition (10 μM)” value stood at 54%.

Turning to `Cc1ccn2c(NC3CCCCC3)c(-c3ccccc3C(F)(F)F)nc2c1` [Example 13, Cyclohexyl-[7-methyl-2-(2-trifluorO-methyl-phenyl)-imidazo[1,2-a]pyridin-3-yl]-amine], the “HTS-NOS assay: % inhibition (10 μM)” value was determined as 57%.

In the case of `C#[N+]CCCCCCNc1c(-c2cccnc2)nc2cc(C)ccn12` [Example 19, Methylidyne-[6-(7-methyl-2-pyridin-3-yl-imidazo[1,2-a]pyridin-3-ylamino)-hexyl]-ammonium], the “HTS-NOS assay: % inhibition (10 μM)” value is given as 53%.

Staying with this assay, now noted: read-out: HTS-NOS assay: % inhibition (10 μM).
Take `O=[N+]([O-])c1cccc2cn[nH]c12` [7-nitroindazole, reference compound]: the inhibition at 10 µM was found to be 50%.

For `Cc1ccn2c(NC(C)(C)C)c(-c3cccnc3)nc2c1` [Example 1, Tert-butyl-(7-methyl-2-pyridin-3-yl-imidazo[1,2-a]pyridin-3-yl)-amine], the inhibition at 10 µM came out at 63%.

With `Cc1cc(C)n2c(NC3CCCCC3)c(-c3ccncc3)nc2c1` [Example 2, Cyclohexyl-(5,7-dimethyl-2-pyridin-4-yl-imidazo[1,2-a]pyridin-3-yl)-amine], the inhibition at 10 µM stood at 62%.

With `Cc1cc(C)n2c(NC(C)(C)CC(C)(C)C)c(-c3ccncc3)nc2c1` [Example 3, (5,7-Dimethyl-2-pyridin-4-yl-imidazo[1,2-a]-pyridin-3-yl)-(1,1,3,3-tetramethyl-butyl)-amine], the inhibition at 10 µM was determined as 60%.

In the case of `COc1cccc(-c2nc3cc(C)cc(C)n3c2NC(C)(C)C)c1OC` [Example 5, Tert-butyl-[2-(2,3-dimethoxy-phenyl)-5,7-dimethyl-imidazo[1,2-a]pyridin-3-yl]-amine], the inhibition at 10 µM amounted to 61%.

In the case of `COc1ccc(-c2nc3cc(C)ccn3c2NC(C)(C)CC(C)(C)C)cc1OC` [Example 6, [2-(3,4-Dimethoxy-phenyl)-7-methyl-imidazo[1,2-a]pyridin-3-yl]-(1,1,3,3-tetramethyl-butyl)-amine], the inhibition at 10 µM turned out to be 53%.

In the case of `Cc1ccn2c(NC3CCCCC3)c(-c3ccncc3)nc2c1` [Example 7, Cyclohexyl-(7-methyl-2-pyridin-4-yl-imidazo[1,2-a]pyridin-3-yl)-amine], the inhibition at 10 µM amounted to 65%.

Take `Cc1cc(C)n2c(NC(C)(C)CC(C)(C)C)c(-c3ccco3)nc2c1` [Example 8, (2-Furan-2-yl-5,7-dimethyl-imidazo[1,2-a]-pyridin-3-yl)-(1,1,3,3-tetramethyl-butyl)-amine]: the inhibition at 10 µM is 52%.

Take `Cc1ccn2c(NC3CCCCC3)c(-c3cccs3)nc2c1` [Example 11, Cyclohexyl-(7-methyl-2-thiophen-2-yl-imidazo[1,2-a]pyridin-3-yl)-amine]: the inhibition at 10 µM turned out to be 60%.

For the molecule `Cc1cc(C)n2c(NC(C)(C)CC(C)(C)C)c(-c3cccnc3)nc2c1` [Example 12, (5,7-Dimethyl-2-pyridin-3-yl-imidazo[1,2-a]-pyridin-3-yl)-(1,1,3,3-tetramethyl-butyl)-amine], the inhibition at 10 µM amounted to 61%.

Consider `Cc1cc(C)n2c(NC(C)(C)C)c(C)nc2c1` [Example 14, Tert-butyl-(2,5,7-trimethyl-imidazo[1,2-a]-pyridin-3-yl)-amine], for which the inhibition at 10 µM was found to be 67%.

As for `Cc1ccn2c(NC(C)(C)CC(C)(C)C)c(-c3cccnc3)nc2c1` [Example 15, (7-Methyl-2-pyridin-3-yl-imidazo[1,2-a]-pyridin-3-yl)-(1,1,3,3-tetramethyl-butyl)-amine], the inhibition at 10 µM is 59%.

`Cc1ccn2c(NC3CCCCC3)c(-c3cccc4ccccc34)nc2c1` [Example 16, Cyclohexyl-(7-methyl-2-naphthalen-1-yl-imidazo[1,2-a]pyridin-3-yl)-amine]: the inhibition at 10 µM stood at 56%.

`Cc1ccn2c(NC(C)(C)CC(C)(C)C)c(-c3ccccc3F)nc2c1` [Example 17, [2-(2-Fluoro-phenyl)-7-methyl-imidazo[1,2-a]pyridin-3-yl]-(1,1,3,3-tetramethyl-butyl)-amine]: the inhibition at 10 µM came to 51%.

For the molecule `COC(=O)CNc1c(C)nc2cc(C)ccn12` [Example 18, (2,7-Dimethyl-imidazo[1,2-a]pyridin-3-ylamino)-acetic acid methyl ester], the inhibition at 10 µM came to 50%.

Regarding `Cc1cc(C)n2c(NC(C)(C)C)c(-c3cccc(O)c3)nc2c1` [Example 20, 3-(3-Tert-butylamino-5,7-dimethyl-imidazo[1,2-a]pyridin-2-yl)-phenol], the inhibition at 10 µM was 64%.

Regarding `Cc1ccn2c(NC3CCCCC3)c(-c3ccccc3F)nc2c1` [Example 21, Cyclohexyl-(2-(2-fluoro-phenyl)-7-methyl-imidazo[1,2-a]pyridin-3-yl]-amine], the inhibition at 10 µM worked out at 53%.

For the molecule `Cc1cc(C)n2c(NC(C)(C)C)c(C3CCCCC3)nc2c1` [Example 22, Tert-butyl-(2-cyclohexyl-5,7-dimethyl-imidazo[1,2-a]pyridin-3-yl)-amine], the inhibition at 10 µM was found to be 68%.

Turning to `Cc1ccn2c(NC3CCCCC3)c(-c3cccnc3)nc2c1` [Example 23, Cyclohexyl-(7-methyl-2-pyridin-3-yl-imidazo[1,2-a]pyridin-3-yl)-amine], the inhibition at 10 µM is 74%.

`Cc1ccn2c(NC(C)(C)C)c(-c3cccc(O)c3)nc2c1` [Example 24, 3-(3-Tert-butylamino-7-methyl-imidazo[1,2-a]pyridin-2-yl)-phenol]: the inhibition at 10 µM worked out at 59%.

Regarding `Cc1cc(C)n2c(NC(C)(C)C)c(-c3ccco3)nc2c1` [Example 25, Tert-butyl-(2-furan-2-yl-5,7-dimethyl-imidazo[1,2-a]pyridin-3-yl)-amine], the inhibition at 10 µM came out at 60%.

`Cc1cc(C)n2c(NC3CCCCC3)c(-c3ccco3)nc2c1` [Example 26, Cyclohexyl-(2-furan-2-yl-5,7-dimethyl-imidazo[1,2-a]pyridin-3-yl)-amine]: the inhibition at 10 µM stood at 62%.

On to `Cc1cc(C)n2c(NC3CCCCC3)c(-c3cccnc3)nc2c1` [Example 27, Cyclohexyl-(5,7-dimethyl-2-pyridin-3-yl-imidazo[1,2-a]pyridin-3-yl)-amine], for which the inhibition at 10 µM was found to be 62%.

As for `Cc1ccn2c(NC(C)(C)CC(C)(C)C)c(-c3ccco3)nc2c1` [Example 28, (2-Furan-2-yl-7-methyl-imidazo[1,2-a]-pyridin-3-yl)-(1,1,3,3-tetramethyl-butyl)-amine], the inhibition at 10 µM turned out to be 50%.

As for `Cc1ccn2c(NC(C)(C)CC(C)(C)C)c(-c3ccncc3)nc2c1` [Example 29, (7-Methyl-2-pyridin-4-yl-imidazo[1,2-a]-pyridin-3-yl)-(1,1,3,3-tetramethyl-butyl)-amine], the inhibition at 10 µM was found to be 69%.

As for `CCCCNc1c(C2CCCCC2)nc2cc(C)ccn12` [Example 30, Butyl-(2-cyclohexyl-7-methyl-imidazo[1,2-a]pyridin-3-yl)-amine], the inhibition at 10 µM turned out to be 56%.

Consider `Cc1cc(C)n2c(NC(C)(C)CC(C)(C)C)c(-c3cccc(O)c3)nc2c1` [Example 31, 3-[5,7-Dimethyl-3-(1,1,3,3-tetramethyl-butylamino)-imidazo[1,2-a]pyridin-2-yl]-phenol], for which the inhibition at 10 µM turned out to be 60%.
